Assay results from the Deep4Chem optical property database.

Assay: photoluminescence quantum yield (fraction); solvent given as SMILES

N#C/C(=C\c1ccc(C=C(c2ccccc2)c2ccccc2)cc1)c1ccccc1
photoluminescence quantum yield (in C1CCOC1): 0.045

COC(=O)c1c(C(=O)OC)c2ccc(C)nn2c1C
photoluminescence quantum yield (in CCCCCC): 0.348

COc1ccc(C#Cc2nc(C#Cc3ccc(OC)cc3)c(C#Cc3ccc(OC)cc3)c(C#Cc3ccc(OC)cc3)c2C#Cc2ccc(OC)cc2)cc1
photoluminescence quantum yield (in ClCCl): 0.81

CC(=O)OCCOCCN1C(=O)c2cc(NCCOCCO)c3c4c(cc(NCCOCCO)c(c24)C1=O)C(=O)N(CCOCCOC(C)=O)C3=O
photoluminescence quantum yield (in CO): 0.37
photoluminescence quantum yield (in ClC(Cl)Cl): 0.59
photoluminescence quantum yield (in O): 0.03

COc1ccc(C2=C(c3ccc(OC)cc3)c3cccc4c3c(cc3nc5ccccc5nc34)O2)cc1
photoluminescence quantum yield (in ClCCl): 0.48

CC(C)(C)c1ccc(C2=C(c3ccc(C(C)(C)C)cc3)C(c3ccc(C(C)(C)C)cc3)=[N+]3C2=C(c2ccccc2)c2c(-c4ccc(C(C)(C)C)cc4)c(-c4ccc(C(C)(C)C)cc4)c(-c4ccc(C(C)(C)C)cc4)n2[B-]3(F)F)cc1
photoluminescence quantum yield (in C1CCCCC1): 0.32
photoluminescence quantum yield (in C1CCOC1): 0.3
photoluminescence quantum yield (in CC#N): 0.25
photoluminescence quantum yield (in Cc1ccccc1): 0.57
photoluminescence quantum yield (in ClCCl): 0.45

CN(C)c1ccc(/C=C2\OC(=O)c3cc(N)ccc32)cc1
photoluminescence quantum yield (in CC#N): 0.24
photoluminescence quantum yield (in CC(C)=O): 0.26
photoluminescence quantum yield (in CC(C)CO): 0.36
photoluminescence quantum yield (in CC(C)O): 0.31
photoluminescence quantum yield (in CCCO): 0.28
photoluminescence quantum yield (in CCO): 0.22
photoluminescence quantum yield (in CCOC(C)=O): 0.37
photoluminescence quantum yield (in CCOCC): 0.4
photoluminescence quantum yield (in CO): 0.22

O=Cc1ccc2nc(C#Cc3ccc(N(c4ccccc4)c4ccccc4)cc3)sc2c1
photoluminescence quantum yield (in Cc1ccccc1): 1

N#Cc1ccc(/C=C2\OC(=O)c3cc(N)ccc32)cc1
photoluminescence quantum yield (in CC#N): 0.062
photoluminescence quantum yield (in CC(C)=O): 0.05
photoluminescence quantum yield (in CC(C)CO): 0.17
photoluminescence quantum yield (in CC(C)O): 0.16
photoluminescence quantum yield (in CCCO): 0.14
photoluminescence quantum yield (in CCO): 0.13
photoluminescence quantum yield (in CCOC(C)=O): 0.047
photoluminescence quantum yield (in CCOCC): 0.031
photoluminescence quantum yield (in CO): 0.11

CN(C)c1ccc2nc(/C=C/c3cc4c5c(c3)CCCN5CCC4)c(=O)oc2c1
photoluminescence quantum yield (in C1CCCCC1): 0.37
photoluminescence quantum yield (in C1COCCO1): 0.56
photoluminescence quantum yield (in CC#N): 0.023
photoluminescence quantum yield (in CC(C)=O): 0.08
photoluminescence quantum yield (in CCCCCCC): 0.32
photoluminescence quantum yield (in CCO): 0.008
photoluminescence quantum yield (in CCOC(C)=O): 0.39
photoluminescence quantum yield (in CN(C)C=O): 0.036
photoluminescence quantum yield (in CS(C)=O): 0.03
photoluminescence quantum yield (in Cc1ccccc1): 0.55
photoluminescence quantum yield (in ClC(Cl)Cl): 0.2
photoluminescence quantum yield (in ClCCl): 0.19

CCOC(=O)c1[nH]c(C)c(/C=C/c2c(I)c(C)c3n2[B-](F)(F)[N+]2=C(C)C(I)=C(C)C2=C3c2cc(OC)cc(OC)c2)c1C
photoluminescence quantum yield (in C1CCOC1): 0.22
photoluminescence quantum yield (in CS(C)=O): 0.23
photoluminescence quantum yield (in ClCCl): 0.21

CN(C)c1ccc(/C=C/c2cnc(C#Cc3ccc(C#N)cc3)o2)cc1
photoluminescence quantum yield (in ClCCl): 0.24

Fc1c(-c2nnc(-c3ccccc3)o2)c(-n2c3ccccc3c3ccccc32)c(F)c(-n2c3ccccc3c3ccccc32)c1-n1c2ccccc2c2ccccc21
photoluminescence quantum yield (in Cc1ccccc1): 0.2

O=P1(c2ccccc2)C(c2cccs2)=Cc2ccccc21 (stereo unspecified)
photoluminescence quantum yield (in C1CCOC1): 0.23

CC[N+](CC)=c1ccc2cc3c(oc-2c1)-c1ccc(N(C)C)cc1CC3
photoluminescence quantum yield (in CCO): 0.618
photoluminescence quantum yield (in ClCCl): 0.724
photoluminescence quantum yield (in O): 0.282

Cc1cccc2c1nc1c(=O)n(C)c(=O)nc-1n2C
photoluminescence quantum yield (in CC#N): 0.14

O=C1c2cc3ccccc3cc2C2=Nc3cccc[n+]3[B-](F)(F)N12
photoluminescence quantum yield (in ClCCl): 0.86

CC1=CC(/C=C/c2ccc([N+](C)(C)C)cc2)=[N+]2C1=C(c1ccc(I)cc1)c1c(C)cc(/C=C/c3ccc([N+](C)(C)C)cc3)n1[B-]2(F)F
photoluminescence quantum yield (in CC#N): 0.69

COC(=O)/C(C#N)=c1\s/c(=c2/s/c(=C(/C#N)C(=O)OC)c3cc(-c4ccc(C)cc4)sc23)c2sc(-c3ccc(C)cc3)cc12
photoluminescence quantum yield (in Cc1ccccc1): 0.325

C[Si]1(C)O[Si](C)(C)c2cc3nc4ccccc4c(-c4ccc(F)cc4)c3cc2[Si](C)(C)O1
photoluminescence quantum yield (in ClCCl): 0.3

CC(C)[Si](C#Cc1c2cc3ccccc3cc2c(C#Cc2ccccc2)c2cc3ccccc3cc12)(C(C)C)C(C)C
photoluminescence quantum yield (in ClCCl): 0.12

COc1c(-c2ccc(N(C)C)cc2)oc2ccccc2c1=O
photoluminescence quantum yield (in C1CCCCC1): 0.048
photoluminescence quantum yield (in C1CCOC1): 0.88
photoluminescence quantum yield (in CC#N): 0.69
photoluminescence quantum yield (in CO): 0.021

C[Si]1(C)c2ccc(-c3ccccc3)cc2C=Cc2cc(-c3ccccc3)ccc21
photoluminescence quantum yield (in ClCCl): 0.38

N#Cc1c(-n2c3ccccc3c3cc(I)ccc32)c(C#N)c(-n2c3ccccc3c3cc(I)ccc32)c(-n2c3ccccc3c3cc(I)ccc32)c1-n1c2ccccc2c2cc(I)ccc21
photoluminescence quantum yield (in Cc1ccccc1): 0.78

CC(=O)Nc1ccc(C2=C/C(=C\c3ccc(C#N)cc3)C(=O)N2CC(C)C)cc1
photoluminescence quantum yield (in C1COCCO1): 0.218

c1ccc(N(c2ccccc2)c2ccc(-c3ccc4c(c3)C3(c5cc(-c6ccc(N(c7ccccc7)c7ccccc7)cc6)ccc5S4)c4ccccc4-c4ccccc43)cc2)cc1
photoluminescence quantum yield (in ClCCl): 0.66
